Patent US20220296521A1, “CARRIER-BASED FORMULATIONS AND RELATED METHODS” (Respira Therapeutics, Inc., priority 2019, published 2022)

Test: Tapped density of bulk powder
Assay type: physicochemical
Method: “Tapped densities” or ρtapped as used herein were measured in a fashion similar to Method I, as described in USP <616> Bulk Density and Tapped Density of Powders. Tapped densities represent a closer approximation to particle density than poured bulk densities, with measured values that are approximately 20% less than the actual particle density.
Tapped density was determined using a cylindrical cavity of known volume (0.593 cm^3). Powder was filled into this sample holder using a microspatula. The sample cell was then gently tapped on a countertop. As the sample volume decreased, more powder was added to the cell. The tapping and addition of powder steps were repeated until the cavity was filled and the powder bed no longer consolidated with further tapping. The tapped density is defined as the mass of this tapped bed of powder divided by the volume of the cavity.

Tapped density	Compound
0.16 g/mL	CC(C)C(=O)OCC(=O)[C@@]12O[C@H](C3CCCCC3)O[C@@H]1C[C@H]1[C@@H]3CCC4=CC(=O)C=C[C@]4(C)[C@H]3[C@@H](O)C[C@@]12C [Cic-B, ciclesonide]
0.17 g/mL	CC(C)C(=O)OCC(=O)[C@@]12O[C@H](C3CCCCC3)O[C@@H]1C[C@H]1[C@@H]3CCC4=CC(=O)C=C[C@]4(C)[C@H]3[C@@H](O)C[C@@]12C [Cic-A, ciclesonide]
